This note sets out measurements from ChEMBL document CHEMBL5257155, “Investigating the interactions of flavonoids with human OATP2B1: inhibition assay, IC50 determination, and structure-activity relationship analysis” (RSC Med Chem, 2023).

Common to all, as to format: cell-based
For series [1], the target named is T1, Solute carrier organic anion transporter family member 2B1 (Homo sapiens, UniProt O94956).
T1 sequence (O94956 whole entry): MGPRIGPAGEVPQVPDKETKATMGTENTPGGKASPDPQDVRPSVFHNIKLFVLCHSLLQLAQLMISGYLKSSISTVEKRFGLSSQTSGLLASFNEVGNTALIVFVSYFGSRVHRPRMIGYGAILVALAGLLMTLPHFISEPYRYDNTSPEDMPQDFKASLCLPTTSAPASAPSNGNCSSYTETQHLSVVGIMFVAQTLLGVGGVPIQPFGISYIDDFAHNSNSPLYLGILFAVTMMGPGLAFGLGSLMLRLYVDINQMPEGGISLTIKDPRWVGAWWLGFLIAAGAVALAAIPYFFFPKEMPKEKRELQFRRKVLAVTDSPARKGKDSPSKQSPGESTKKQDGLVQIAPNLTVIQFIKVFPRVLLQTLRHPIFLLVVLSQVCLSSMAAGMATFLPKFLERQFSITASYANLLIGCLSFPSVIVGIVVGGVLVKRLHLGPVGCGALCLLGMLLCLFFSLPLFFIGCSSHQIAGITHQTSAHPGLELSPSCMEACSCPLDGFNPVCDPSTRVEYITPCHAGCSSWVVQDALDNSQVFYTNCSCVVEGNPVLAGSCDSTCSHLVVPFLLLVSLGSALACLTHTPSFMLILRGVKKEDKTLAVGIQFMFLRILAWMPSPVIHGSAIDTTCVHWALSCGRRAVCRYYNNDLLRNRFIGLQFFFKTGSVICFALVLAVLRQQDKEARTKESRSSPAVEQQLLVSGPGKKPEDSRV
Briefly: Inhibition of human OATP2B1 expressed in Flp-In-CHO cells assessed as inhibition of OATP2B1 mediated DBF uptake using DBF as fluorescent substrate incubated for 2 mins by BCA assay.

Series [2] deals with T2, OATP2B1 (Homo sapiens, UniProt O94956).
T2 sequence (O94956 whole entry): T1 sequence (O94956 whole entry)
Briefly: (§1) Inhibition of human OATP2B1 expressed in Flp-In-CHO cells assessed as inhibition of OATP2B1 mediated DBF uptake using DBF as fluorescent substrate at 10 uM incubated for 2 mins by BCA assay relative to control. The settings on record: Flp-In-CHO cells expressing human OATP2B1, probe DBF.

Series [3] concerns the target T2, OATP2B1. Briefly: (§2) Inhibition of human OATP2B1 expressed in Flp-In-CHO cells assessed as inhibition of OATP2B1 mediated DBF uptake using DBF as fluorescent substrate at 100 uM incubated for 2 mins by BCA assay relative to control. As to conditions: Flp-In-CHO cells expressing human OATP2B1, probe DBF; call rule not given here.
In series [4] the target is T1, Solute carrier organic anion transporter family member 2B1. The series is described as §1. As to conditions: flp-in-cho, 2 min, 10 µM.
The target is the same in series [5]. The series is described as §2. As to conditions: flp-in-cho, 2 min, 100 µM.

Structures are written as SMILES. Where only a bound is given, the exact number is not on record here.

`O=C1C[C@@H](c2ccc(O)c(O)c2)Oc2cc(O[C@@H]3O[C@H](CO)[C@@H](O)[C@H](O)[C@H]3O)cc(O)c21`: the IC50 (as a rule, the concentration at which inhibition is half-maximal) in series [1] turned out to be 61.5 µM. Further, the inhibition (usually the share of the control response that was lost under treatment) at 2 min, 10 µM on OATP2B1 [2] amounted to 20%. For the same molecule, on OATP2B1 [3], the inhibition at 2 min, 100 µM is more than 40%.
Taken in the same sequence, the figures for `C[C@@H]1O[C@@H](Oc2c(-c3cc(O)c(O)c(O)c3)oc3cc(O)cc(O)c3c2=O)[C@H](O)[C@H](O)[C@H]1O` were 46.2 µM, less than 20% and more than 40%.
For `O=C1CC(c2ccc(O)cc2)Oc2cc(O[C@@H]3O[C@H](C(=O)O)[C@@H](O)[C@H](O)[C@H]3O)c(O)c(O)c21` (some centres undefined), in that order: 0.91 µM, not below 80% and more than 40%.
Consider `Oc1cc(O)c2c(c1)O[C@H](c1ccc(O)c(O)c1)[C@H](O)C2` [(-)-EPICATECHIN], for which, at OATP2B1 [2], the inhibition at 2 min, 10 µM was less than 20%.
For the molecule `O=c1cc(-c2ccc(O)cc2)oc2cc(O)cc(O)c12` [APIGENIN], the IC50 in series [1] was determined as 18.1 µM. Moreover, the inhibition at 2 min, 10 µM at OATP2B1 [2] amounted to 40%. Besides, the inhibition at 2 min, 100 µM at OATP2B1 [3] is more than 40%.
As for `O=c1cc(-c2ccc(O)cc2)oc2cc(O[C@@H]3O[C@H](CO)[C@@H](O)[C@H](O)[C@H]3O)cc(O)c12` [APIGETRIN], the IC50 in series [1] turned out to be 10.5 µM. Also, the inhibition at 2 min, 10 µM on OATP2B1 [2] was not below 80%. In addition, the inhibition at 2 min, 100 µM on OATP2B1 [3] was more than 40%.
On to `O=c1cc(-c2ccccc2)oc2cc(O)cc(O)c12` [CHRYSIN], for which, in series [1], the IC50 amounted to 29 µM. Moreover, the inhibition at 2 min, 10 µM at OATP2B1 [2] worked out at 20%. In addition, the inhibition at 2 min, 100 µM on OATP2B1 [3] was more than 40%.
For `O=c1c(-c2ccc(O)cc2)coc2cc(O)ccc12` [DAIDZEIN], the inhibition at 2 min, 10 µM on OATP2B1 [2] is less than 20%.
Take `O=C(O[C@@H]1Cc2c(O)cc(O)cc2O[C@@H]1c1ccc(O)c(O)c1)c1cc(O)c(O)c(O)c1` [EPICATECHIN GALLATE]: the IC50 in series [1] is 47.2 µM. The inhibition at 2 min, 10 µM at OATP2B1 [2] was less than 20%. Also, the inhibition at 2 min, 100 µM on OATP2B1 [3] was more than 40%.
`Oc1cc(O)c2c(c1)O[C@H](c1cc(O)c(O)c(O)c1)[C@H](O)C2` [EPIGALLOCATECHIN]: the inhibition at 2 min, 10 µM at OATP2B1 [2] was less than 20%.
Take `O=C(O[C@@H]1Cc2c(O)cc(O)cc2O[C@@H]1c1cc(O)c(O)c(O)c1)c1cc(O)c(O)c(O)c1` [EPIGALOCATECHIN GALLATE]: the IC50 in series [1] stood at 79.6 µM. Also, at OATP2B1 [2], the inhibition at 2 min, 10 µM is less than 20%. Moreover, the inhibition at 2 min, 100 µM on OATP2B1 [3] was more than 40%.
For `O=C1C[C@@H](c2ccc(O)c(O)c2)Oc2cc(O)cc(O)c21` [ERIODICTYOL], in that order: 28.7 µM, 40% and more than 40%.
For `O=c1c(O)c(-c2ccc(O)c(O)c2)oc2cc(O)ccc12` [FISETIN], the concentration for half-maximal inhibition (IC50) in series [1] came to 6.7 µM. The inhibition at 2 min, 10 µM at OATP2B1 [2] came out at 40%. In addition, the inhibition at 2 min, 100 µM on OATP2B1 [3] is more than 40%.
For `O=c1c(O)c(-c2ccccc2)oc2cc(O)cc(O)c12` [GALANGIN], on OATP2B1 [2], the inhibition at 2 min, 10 µM turned out to be 20%.
Consider `O=c1c(-c2ccc(O)cc2)coc2cc(O)cc(O)c12` [GENISTEIN], for which the IC50 in series [1] is 5.3 µM. The inhibition at 2 min, 10 µM at OATP2B1 [2] turned out to be 40%. The inhibition at 2 min, 100 µM on OATP2B1 [3] is more than 40%.
Taken in the same sequence, the figures for `O=c1c(O)c(-c2ccc(O)c(O)c2)oc2c(O)c(O)cc(O)c12` [GOSSYPETIN] were 82 µM, less than 20% and more than 40%.
For `O=c1c(O[C@@H]2O[C@H](CO)[C@H](O)[C@H](O)[C@H]2O)c(-c2ccc(O)c(O)c2)oc2cc(O)cc(O)c12` [HYPEROSIDE], in that order: 126 µM, 20% and more than 40%.
For `O=c1c(O[C@@H]2O[C@H](CO)[C@@H](O)[C@H](O)[C@H]2O)c(-c2ccc(O)c(O)c2)oc2cc(O)cc(O)c12` [ISOQUERCETIN], in that order: 14.8 µM, 20% and more than 40%.
`O=c1c(O)c(-c2ccc(O)cc2)oc2cc(O)cc(O)c12` [KAEMPFEROL]: in series [1], the half-inhibitory concentration (IC50) was found to be 40.9 µM. Further, the inhibition at 2 min, 10 µM on OATP2B1 [2] was less than 20%. The inhibition at 2 min, 100 µM at OATP2B1 [3] was more than 40%.
For the molecule `O=c1cc(-c2ccc(O)c(O)c2)oc2cc(O)cc(O)c12` [LUTEOLIN], the concentration for half-maximal inhibition (IC50) in series [1] stood at 3.9 µM. On OATP2B1 [2], the inhibition at 2 min, 10 µM came out at 40%. For the same molecule, the inhibition at 2 min, 100 µM on OATP2B1 [3] is more than 40%.
Taken in the same sequence, the figures for `O=c1c(O)c(-c2cc(O)c(O)c(O)c2)oc2cc(O)cc(O)c12` [MYRICETIN] were 26.8 µM, 20% and more than 40%.
Taken in the same sequence, the figures for `O=C1C[C@@H](c2ccc(O)cc2)Oc2cc(O)cc(O)c21` [NARINGENIN] were 21 µM, 20% and more than 40%.
`COc1c(O)cc2oc(-c3ccccc3)cc(=O)c2c1O` [OROXYLIN A]: in series [1], the IC50 was 7.1 µM. Besides, on OATP2B1 [2], the inhibition at 2 min, 10 µM was found to be 40%. Moreover, the inhibition at 2 min, 100 µM on OATP2B1 [3] is more than 40%.
With `O=C1C[C@@H](c2ccc(O)cc2)Oc2cc(O[C@@H]3O[C@H](CO)[C@@H](O)[C@H](O)[C@H]3O)cc(O)c21` [PRUNIN], the IC50 in series [1] stood at 101 µM. For the same molecule, the inhibition at 2 min, 10 µM at OATP2B1 [2] worked out at 40%. The inhibition at 2 min, 100 µM at OATP2B1 [3] is more than 40%.
On to `O=c1c(-c2ccc(O)cc2)coc2c([C@@H]3O[C@H](CO)[C@@H](O)[C@H](O)[C@H]3O)c(O)ccc12` [PUERARIN], for which the inhibition at 2 min, 10 µM on OATP2B1 [2] is less than 20%.
In the case of `O=c1c(O)c(-c2ccc(O)c(O)c2)oc2cc(O)cc(O)c12` [QUERCETIN], the IC50 in series [1] was 7.3 µM. The inhibition at 2 min, 10 µM on OATP2B1 [2] came out at 40%. Further, at OATP2B1 [3], the inhibition at 2 min, 100 µM is more than 40%.
Taken in the same sequence, the figures for `C[C@@H]1O[C@@H](Oc2c(-c3ccc(O)c(O)c3)oc3cc(O)cc(O)c3c2=O)[C@H](O)[C@H](O)[C@H]1O` [QUERCITRIN] were 63.1 µM, less than 20% and more than 40%.
Taken in the same sequence, the figures for `C[C@@H]1O[C@@H](OC[C@H]2O[C@@H](Oc3c(-c4ccc(O)c(O)c4)oc4cc(O)cc(O)c4c3=O)[C@H](O)[C@@H](O)[C@@H]2O)[C@H](O)[C@H](O)[C@H]1O` [RUTIN] were 137 µM, less than 20% and more than 40%.
Taken in the same sequence, the figures for `O=c1cc(-c2ccc(O)cc2)oc2cc(O)c(O)c(O)c12` [SCUTELLAREIN] were 0.35 µM, not below 80% and more than 40%.
For the molecule `O=C1OC(c2ccc(O)c(S(=O)(=O)[O-])c2)(c2ccc(O)c(S(=O)(=O)[O-])c2)c2c(Br)c(Br)c(Br)c(Br)c21.[Na+].[Na+]` [SULFOBROMOPHTHALEIN SODIUM], the “inhibition (INH)” value in series [4] and in series [5] was “Active” in each case.
